Data reported in publication PMC3445516 (PLoS ONE, 2012).

How the values were obtained:
Assay in all cases: Ambit kinase profiling, competition binding
ABL1 = target: T1, ABL1 (Homo sapiens, UniProt P00519); details: compound concentration 10 uM, read-out: Percent Competition
T1 construct: purchased Ambit Biosciences (KINOMEscan)
Excerpt: (§1) Supplement pone.0044653.s004.xls, sheet "Compound 122" | column: Percent Competition

ABL1(F317L) = target: T2, ABL1(F317L) (Homo sapiens, UniProt P00519, F317L); details: compound concentration 10 uM, read-out: Percent Competition
T2 construct: purchased Ambit Biosciences (KINOMEscan)
Excerpt: as §1

AKT3 = target: T3, AKT3 (Homo sapiens, UniProt Q9Y243); details: compound concentration 10 uM, read-out: Percent Competition
T3 construct: purchased Ambit Biosciences (KINOMEscan)
Excerpt: as §1

AURKB = target: T4, AURKB (Homo sapiens, UniProt Q96GD4); details: compound concentration 10 uM, read-out: Percent Competition
T4 construct: purchased Ambit Biosciences (KINOMEscan)
T4 sequence (Q96GD4 whole entry): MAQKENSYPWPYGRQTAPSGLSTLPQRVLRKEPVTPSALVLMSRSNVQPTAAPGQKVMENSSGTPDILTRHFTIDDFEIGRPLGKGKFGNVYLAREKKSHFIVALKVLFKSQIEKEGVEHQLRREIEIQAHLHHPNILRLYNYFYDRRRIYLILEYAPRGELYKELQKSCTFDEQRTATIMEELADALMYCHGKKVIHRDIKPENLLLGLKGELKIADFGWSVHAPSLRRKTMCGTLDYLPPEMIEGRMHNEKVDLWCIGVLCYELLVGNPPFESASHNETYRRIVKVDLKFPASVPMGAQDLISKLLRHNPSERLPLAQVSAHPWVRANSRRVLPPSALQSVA
Excerpt: as §1

AXL = target: T5, AXL (Homo sapiens, UniProt P30530); details: compound concentration 10 uM, read-out: Percent Competition
T5 construct: purchased Ambit Biosciences (KINOMEscan)
Excerpt: as §1

BMPR1A = target: T6, BMPR1A (Homo sapiens, UniProt P36894); details: compound concentration 10 uM, read-out: Percent Competition
T6 construct: purchased Ambit Biosciences (KINOMEscan)
Excerpt: as §1

BMX = target: T7, BMX (Homo sapiens, UniProt P51813); details: compound concentration 10 uM, read-out: Percent Competition
T7 construct: purchased Ambit Biosciences (KINOMEscan)
Excerpt: as §1

DCAMKL1 = target: T8, DCAMKL1 (Homo sapiens, UniProt O15075); details: compound concentration 10 uM
T8 construct: purchased Ambit Biosciences (KINOMEscan)
Excerpt: as §1

DRAK2 = target: T9, DRAK2 (Homo sapiens, UniProt O94768); details: compound concentration 10 uM, read-out: Percent Competition
T9 construct: purchased Ambit Biosciences (KINOMEscan)
Excerpt: as §1

EPHA5 = target: T10, EPHA5 (Homo sapiens, UniProt P54756); details: compound concentration 10 uM
T10 construct: purchased Ambit Biosciences (KINOMEscan)
Excerpt: as §1

FGFR1 = target: T11, FGFR1 (Homo sapiens, UniProt P11362); details: compound concentration 10 uM, read-out: Percent Competition
T11 construct: purchased Ambit Biosciences (KINOMEscan)
Excerpt: as §1

FGFR4 = target: T12, FGFR4 (Homo sapiens, UniProt P22455); details: compound concentration 10 uM, read-out: Percent Competition
T12 construct: purchased Ambit Biosciences (KINOMEscan)
T12 sequence (P22455 22-802): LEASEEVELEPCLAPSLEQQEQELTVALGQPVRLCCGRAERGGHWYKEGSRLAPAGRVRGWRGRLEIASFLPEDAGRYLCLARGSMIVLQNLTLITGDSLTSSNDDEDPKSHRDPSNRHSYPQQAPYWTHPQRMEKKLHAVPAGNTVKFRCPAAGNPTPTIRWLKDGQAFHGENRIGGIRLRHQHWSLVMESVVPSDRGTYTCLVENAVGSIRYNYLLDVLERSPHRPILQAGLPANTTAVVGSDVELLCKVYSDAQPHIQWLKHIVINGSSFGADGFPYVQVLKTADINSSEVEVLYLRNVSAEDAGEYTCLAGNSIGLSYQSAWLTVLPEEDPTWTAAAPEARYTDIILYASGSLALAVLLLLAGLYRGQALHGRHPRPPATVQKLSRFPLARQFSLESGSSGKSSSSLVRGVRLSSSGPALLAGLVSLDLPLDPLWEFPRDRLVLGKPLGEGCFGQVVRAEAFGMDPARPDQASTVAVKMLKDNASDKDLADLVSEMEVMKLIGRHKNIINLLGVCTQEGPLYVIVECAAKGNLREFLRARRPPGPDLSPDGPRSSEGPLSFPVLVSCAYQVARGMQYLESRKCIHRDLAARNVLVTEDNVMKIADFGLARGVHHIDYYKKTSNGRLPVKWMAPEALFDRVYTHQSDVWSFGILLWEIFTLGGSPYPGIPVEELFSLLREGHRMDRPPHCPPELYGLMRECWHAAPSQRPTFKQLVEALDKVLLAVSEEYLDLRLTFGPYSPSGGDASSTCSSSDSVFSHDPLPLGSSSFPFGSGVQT
Excerpt: as §1

FLT1 = target: T13, FLT1 (Homo sapiens, UniProt P17948); details: compound concentration 10 uM, read-out: Percent Competition
T13 construct: purchased Ambit Biosciences (KINOMEscan)
Excerpt: as §1

FLT3(D835H) = target: T14, FLT3(D835H) (Homo sapiens, UniProt P36888, D835H); details: compound concentration 10 uM, read-out: Percent Competition
T14 construct: purchased Ambit Biosciences (KINOMEscan)
Excerpt: as §1

FLT3(N841I) = target: T15, FLT3(N841I) (Homo sapiens, UniProt P36888, N841I); details: compound concentration 10 uM, read-out: Percent Competition
T15 construct: purchased Ambit Biosciences (KINOMEscan)
Excerpt: as §1

HCK = target: T16, HCK (Homo sapiens, UniProt P08631); details: compound concentration 10 uM, read-out: Percent Competition
T16 construct: purchased Ambit Biosciences (KINOMEscan)
Excerpt: as §1

IKK-alpha = target: T17, IKK-alpha (Homo sapiens, UniProt O15111); details: compound concentration 10 uM, read-out: Percent Competition
T17 construct: purchased Ambit Biosciences (KINOMEscan)
T17 sequence (O15111 whole entry): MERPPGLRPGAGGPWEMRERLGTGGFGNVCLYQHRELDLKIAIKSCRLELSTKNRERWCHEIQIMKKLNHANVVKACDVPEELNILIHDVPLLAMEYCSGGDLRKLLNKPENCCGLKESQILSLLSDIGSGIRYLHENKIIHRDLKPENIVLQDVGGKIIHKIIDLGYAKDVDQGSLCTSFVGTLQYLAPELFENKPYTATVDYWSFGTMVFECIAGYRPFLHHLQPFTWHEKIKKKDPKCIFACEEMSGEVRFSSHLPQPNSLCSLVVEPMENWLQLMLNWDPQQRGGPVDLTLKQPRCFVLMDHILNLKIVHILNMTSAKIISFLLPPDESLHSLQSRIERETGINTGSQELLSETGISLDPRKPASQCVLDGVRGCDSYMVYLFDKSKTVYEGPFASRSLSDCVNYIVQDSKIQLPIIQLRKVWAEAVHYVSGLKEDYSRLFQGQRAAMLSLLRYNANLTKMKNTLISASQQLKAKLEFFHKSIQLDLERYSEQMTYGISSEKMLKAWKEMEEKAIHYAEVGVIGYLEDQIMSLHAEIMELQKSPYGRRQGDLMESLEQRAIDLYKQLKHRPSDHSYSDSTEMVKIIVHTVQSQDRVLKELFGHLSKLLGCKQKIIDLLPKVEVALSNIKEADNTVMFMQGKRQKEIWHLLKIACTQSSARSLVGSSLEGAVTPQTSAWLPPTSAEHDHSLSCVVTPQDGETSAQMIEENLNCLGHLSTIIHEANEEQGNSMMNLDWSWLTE
Excerpt: as §1

ITK = target: T18, ITK (Homo sapiens, UniProt Q08881); details: compound concentration 10 uM
T18 construct: purchased Ambit Biosciences (KINOMEscan)
Excerpt: as §1

[1] = target: T19, JAK2(JH1domain-catalytic) (Homo sapiens, UniProt O60674); details: compound concentration 10 uM
T19 construct: JAK2(JH1domain-catalytic); purchased Ambit Biosciences (KINOMEscan)
Excerpt: as §1

KIT(V559D,V654A) = target: T20, KIT(V559D,V654A) (Homo sapiens, UniProt P10721, V559D/V654A); details: compound concentration 10 uM, read-out: Percent Competition
T20 construct: purchased Ambit Biosciences (KINOMEscan)
T20 sequence (P10721 26-976 V559D/V654A): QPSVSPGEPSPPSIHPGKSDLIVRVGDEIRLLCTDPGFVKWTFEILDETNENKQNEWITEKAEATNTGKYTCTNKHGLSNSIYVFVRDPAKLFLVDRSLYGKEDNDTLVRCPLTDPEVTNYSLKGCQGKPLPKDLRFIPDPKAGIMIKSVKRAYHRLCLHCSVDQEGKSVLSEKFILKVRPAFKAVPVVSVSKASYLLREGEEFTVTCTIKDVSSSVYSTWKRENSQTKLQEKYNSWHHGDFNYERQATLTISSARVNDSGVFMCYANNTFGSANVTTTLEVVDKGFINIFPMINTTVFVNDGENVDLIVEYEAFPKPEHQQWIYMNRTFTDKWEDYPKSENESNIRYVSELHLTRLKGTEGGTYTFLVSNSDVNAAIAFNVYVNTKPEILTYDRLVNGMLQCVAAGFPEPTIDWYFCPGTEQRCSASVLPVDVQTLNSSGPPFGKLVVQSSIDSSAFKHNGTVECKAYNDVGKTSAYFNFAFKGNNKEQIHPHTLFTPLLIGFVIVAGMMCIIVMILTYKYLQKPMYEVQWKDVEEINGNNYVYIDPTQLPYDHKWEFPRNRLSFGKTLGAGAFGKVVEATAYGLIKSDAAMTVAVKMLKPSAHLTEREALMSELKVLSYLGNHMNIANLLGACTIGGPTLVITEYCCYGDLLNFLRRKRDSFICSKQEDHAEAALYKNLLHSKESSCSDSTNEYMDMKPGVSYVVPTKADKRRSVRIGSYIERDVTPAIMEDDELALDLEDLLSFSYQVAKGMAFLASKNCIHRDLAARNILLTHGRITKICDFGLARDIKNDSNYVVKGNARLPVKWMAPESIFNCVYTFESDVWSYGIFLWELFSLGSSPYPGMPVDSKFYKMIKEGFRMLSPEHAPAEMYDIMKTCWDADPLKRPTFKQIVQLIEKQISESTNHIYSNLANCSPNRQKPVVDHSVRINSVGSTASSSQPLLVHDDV
Excerpt: as §1

MAP4K5 = target: T21, MAP4K5 (Homo sapiens, UniProt Q9Y4K4); details: compound concentration 10 uM, read-out: Percent Competition
T21 construct: purchased Ambit Biosciences (KINOMEscan)
T21 sequence (Q9Y4K4 whole entry): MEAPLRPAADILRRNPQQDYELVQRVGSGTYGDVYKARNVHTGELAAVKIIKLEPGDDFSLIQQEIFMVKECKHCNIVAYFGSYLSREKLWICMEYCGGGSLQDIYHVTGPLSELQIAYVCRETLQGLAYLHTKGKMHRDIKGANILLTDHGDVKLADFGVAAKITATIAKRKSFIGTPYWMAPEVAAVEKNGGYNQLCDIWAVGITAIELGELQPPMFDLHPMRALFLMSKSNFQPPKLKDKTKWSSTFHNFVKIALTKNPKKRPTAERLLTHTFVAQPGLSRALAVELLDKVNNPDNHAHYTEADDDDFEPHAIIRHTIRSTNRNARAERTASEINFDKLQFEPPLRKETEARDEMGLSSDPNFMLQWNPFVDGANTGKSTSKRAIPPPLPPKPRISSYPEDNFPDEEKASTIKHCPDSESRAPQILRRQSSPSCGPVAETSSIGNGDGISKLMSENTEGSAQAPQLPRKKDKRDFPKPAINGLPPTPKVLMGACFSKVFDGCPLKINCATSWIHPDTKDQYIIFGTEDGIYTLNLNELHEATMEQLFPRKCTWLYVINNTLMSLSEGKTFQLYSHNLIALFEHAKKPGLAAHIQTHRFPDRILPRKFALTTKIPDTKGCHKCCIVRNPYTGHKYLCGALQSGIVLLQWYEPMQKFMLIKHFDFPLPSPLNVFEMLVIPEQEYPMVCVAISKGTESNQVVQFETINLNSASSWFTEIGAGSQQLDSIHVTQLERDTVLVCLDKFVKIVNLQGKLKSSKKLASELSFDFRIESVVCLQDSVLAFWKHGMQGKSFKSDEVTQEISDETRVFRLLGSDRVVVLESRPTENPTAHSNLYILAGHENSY
Excerpt: as §1

MARK4 = target: T22, MARK4 (Homo sapiens, UniProt Q96L34); details: compound concentration 10 uM
T22 construct: purchased Ambit Biosciences (KINOMEscan)
Excerpt: as §1

MET = target: T23, MET (Homo sapiens, UniProt P08581); details: compound concentration 10 uM
T23 construct: purchased Ambit Biosciences (KINOMEscan)
Excerpt: as §1

MKNK1 = target: T24, MKNK1 (Homo sapiens, UniProt Q9BUB5); details: compound concentration 10 uM, read-out: Percent Competition
T24 construct: purchased Ambit Biosciences (KINOMEscan)
Excerpt: as §1

MYO3B = target: T25, MYO3B (Homo sapiens, UniProt Q8WXR4); details: compound concentration 10 uM, read-out: Percent Competition
T25 construct: purchased Ambit Biosciences (KINOMEscan)
Excerpt: as §1

NEK6 = target: T26, NEK6 (Homo sapiens, UniProt Q9HC98); details: compound concentration 10 uM, read-out: Percent Competition
T26 construct: purchased Ambit Biosciences (KINOMEscan)
Excerpt: as §1

NEK9 = target: T27, NEK9 (Homo sapiens, UniProt Q8TD19); details: compound concentration 10 uM, read-out: Percent Competition
T27 construct: purchased Ambit Biosciences (KINOMEscan)
Excerpt: as §1

PFTK1 = target: T28, PFTK1 (Homo sapiens, UniProt O94921); details: compound concentration 10 uM
T28 construct: purchased Ambit Biosciences (KINOMEscan)
Excerpt: as §1

PKN2 = target: T29, PKN2 (Homo sapiens, UniProt Q16513); details: compound concentration 10 uM, read-out: Percent Competition
T29 construct: purchased Ambit Biosciences (KINOMEscan)
Excerpt: as §1

PYK2 = target: T30, PYK2 (Homo sapiens, UniProt Q14289); details: compound concentration 10 uM, read-out: Percent Competition
T30 construct: purchased Ambit Biosciences (KINOMEscan)
Excerpt: as §1

RET(V804L) = target: T31, RET(V804L) (Homo sapiens, UniProt P07949, V804L); details: compound concentration 10 uM, read-out: Percent Competition
T31 construct: purchased Ambit Biosciences (KINOMEscan)
Excerpt: as §1

STK33 = target: T32, STK33 (Homo sapiens, UniProt Q9BYT3); details: compound concentration 10 uM, read-out: Percent Competition
T32 construct: purchased Ambit Biosciences (KINOMEscan)
Excerpt: as §1

TESK1 = target: T33, TESK1 (Homo sapiens, UniProt Q15569); details: compound concentration 10 uM, read-out: Percent Competition
T33 construct: purchased Ambit Biosciences (KINOMEscan)
Excerpt: as §1

TIE1 = target: T34, TIE1 (Homo sapiens, UniProt P35590); details: compound concentration 10 uM, read-out: Percent Competition
T34 construct: purchased Ambit Biosciences (KINOMEscan)
T34 sequence (P35590 22-1138): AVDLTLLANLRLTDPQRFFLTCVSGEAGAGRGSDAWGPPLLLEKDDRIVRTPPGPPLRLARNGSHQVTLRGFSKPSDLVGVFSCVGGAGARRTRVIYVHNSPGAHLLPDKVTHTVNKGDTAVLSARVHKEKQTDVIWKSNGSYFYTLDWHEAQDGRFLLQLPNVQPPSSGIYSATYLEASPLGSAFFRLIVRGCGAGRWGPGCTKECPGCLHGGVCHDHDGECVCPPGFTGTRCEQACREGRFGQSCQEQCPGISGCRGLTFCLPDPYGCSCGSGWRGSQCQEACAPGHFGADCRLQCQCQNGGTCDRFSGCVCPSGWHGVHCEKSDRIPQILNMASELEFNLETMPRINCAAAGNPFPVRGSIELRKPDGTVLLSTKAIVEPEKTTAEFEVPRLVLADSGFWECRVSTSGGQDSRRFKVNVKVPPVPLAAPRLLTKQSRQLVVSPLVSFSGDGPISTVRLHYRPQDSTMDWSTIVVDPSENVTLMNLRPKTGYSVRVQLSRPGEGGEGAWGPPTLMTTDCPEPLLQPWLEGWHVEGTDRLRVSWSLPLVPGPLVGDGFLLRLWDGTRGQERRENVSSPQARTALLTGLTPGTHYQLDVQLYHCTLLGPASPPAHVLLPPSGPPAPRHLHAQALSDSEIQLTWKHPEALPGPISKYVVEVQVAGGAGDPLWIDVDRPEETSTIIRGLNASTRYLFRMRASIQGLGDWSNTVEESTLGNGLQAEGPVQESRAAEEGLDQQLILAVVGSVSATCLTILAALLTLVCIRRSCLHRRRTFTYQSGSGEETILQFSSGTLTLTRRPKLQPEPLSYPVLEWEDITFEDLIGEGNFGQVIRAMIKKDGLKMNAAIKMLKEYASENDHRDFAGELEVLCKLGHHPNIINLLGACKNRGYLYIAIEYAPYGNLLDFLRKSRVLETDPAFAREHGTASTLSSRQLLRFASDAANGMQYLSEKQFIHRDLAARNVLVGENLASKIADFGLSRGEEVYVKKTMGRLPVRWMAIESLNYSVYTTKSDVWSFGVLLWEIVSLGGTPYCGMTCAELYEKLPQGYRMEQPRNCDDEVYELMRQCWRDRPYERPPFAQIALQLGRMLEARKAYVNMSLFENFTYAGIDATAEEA
Excerpt: as §1

TLK1 = target: T35, TLK1 (Homo sapiens, UniProt Q9UKI8); details: compound concentration 10 uM, read-out: Percent Competition
T35 construct: purchased Ambit Biosciences (KINOMEscan)
Excerpt: as §1

TLK2 = target: T36, TLK2 (Homo sapiens, UniProt Q86UE8); details: compound concentration 10 uM, read-out: Percent Competition
T36 construct: purchased Ambit Biosciences (KINOMEscan)
Excerpt: as §1

TRKC = target: T37, TRKC (Homo sapiens, UniProt Q16288); details: compound concentration 10 uM, read-out: Percent Competition
T37 construct: purchased Ambit Biosciences (KINOMEscan)
Excerpt: as §1

[2] = target: T38, TYK2(JH1domain-catalytic) (Homo sapiens, UniProt P29597); details: compound concentration 10 uM
T38 construct: TYK2(JH1domain-catalytic); purchased Ambit Biosciences (KINOMEscan)
Excerpt: as §1

TYRO3 = target: T39, TYRO3 (Homo sapiens, UniProt Q06418); details: compound concentration 10 uM, read-out: Percent Competition
T39 construct: purchased Ambit Biosciences (KINOMEscan)
Excerpt: as §1

ULK3 = target: T40, ULK3 (Homo sapiens, UniProt Q6PHR2); details: compound concentration 10 uM
T40 construct: purchased Ambit Biosciences (KINOMEscan)
Excerpt: as §1

inhibition at 10 µM (ABL1): < 50% | inhibition at 10 µM (ABL1(F317L)): < 50% | inhibition at 10 µM (AKT3): < 50% | inhibition at 10 µM (AURKB): < 50% | inhibition at 10 µM (AXL): < 50% | inhibition at 10 µM (BMPR1A): < 50% | inhibition at 10 µM (BMX): < 50% | Percent Competition (DCAMKL1): <50% | inhibition at 10 µM (DRAK2): < 50% | Percent Competition (EPHA5): <50% | inhibition at 10 µM (FGFR1): < 50% | inhibition at 10 µM (FGFR4): < 50% | inhibition at 10 µM (FLT1): < 50% | inhibition at 10 µM (FLT3(D835H)): < 50% | inhibition at 10 µM (FLT3(N841I)): < 50% | inhibition at 10 µM (HCK): < 50% | inhibition at 10 µM (IKK-alpha): < 50% | Percent Competition (ITK): <50% | Percent Competition [1]: <50% | inhibition at 10 µM (KIT(V559D,V654A)): < 50% | inhibition at 10 µM (MAP4K5): < 50% | Percent Competition (MARK4): <50% | Percent Competition (MET): <50% | inhibition at 10 µM (MKNK1): < 50% | inhibition at 10 µM (MYO3B): < 50% | inhibition at 10 µM (NEK6): < 50% | Percent Competition (PFTK1): <50% | inhibition at 10 µM (PKN2): < 50% | inhibition at 10 µM (PYK2): < 50% | inhibition at 10 µM (RET(V804L)): < 50% | inhibition at 10 µM (STK33): < 50% | inhibition at 10 µM (TESK1): < 50% | inhibition at 10 µM (TIE1): < 50% | inhibition at 10 µM (TLK1): < 50% | inhibition at 10 µM (TLK2): < 50% | inhibition at 10 µM (TRKC): < 50% | Percent Competition [2]: <50% | inhibition at 10 µM (TYRO3): < 50% | Percent Competition (ULK3): <50%
SMILES: Fc1ccc(-c2c(-c3ccncc3)[nH]c3nccnc23)cc1 [RO1155697-000-005]
inhibition at 10 µM (NEK9): < 50%
